Test system: Dnmt3a^WT cells
Assay: RNA-sequencing of HSPCs treated in vitro with ADP-heptose or H2O for 90 minutes
Type: cell-based, mouse

## Nc1ncnc2c1ncn2[C@@H]1O[C@H](COP(=O)(O)OP(=O)(O)O[C@@H]2O[C@H]([C@H](O)CO)[C@@H](O)[C@H](O)[C@@H]2O)[C@@H](O)[C@H]1O [ADP-heptose, ADP-D-glycero-β-D-manno-heptose]
Dnmt3a^WT cells, vs H2O
  logFC 2900005J15Rik: 0.6052
  logFC AI607873: 0.6683
  logFC Abca1: −0.707
  logFC Acsbg1: 0.5944
  logFC Adgrg6: −0.645
  logFC Akap12: −1.955
  logFC Akr1c18: 0.7051
  logFC Alpk2: 1.196
  logFC Aoc1: 2.048
  logFC Arg1: 0.7872
  logFC Arl5c: −0.704
  logFC Arntl: −0.87
  logFC Asb2: 1.407
  logFC Atoh8: 0.7783
  logFC Azin2: 0.6183
  logFC B3galt5: 0.9015
  logFC Bach2: −0.675
  logFC Bcl2a1b: 0.925
  logFC Bcl2a1d: 0.6551
  logFC Bhlha15: −0.596
  logFC Blk: −1.578
  logFC Blnk: −1.446
  logFC Cacna1f: 0.7515
  logFC Ccdc63: −0.697
  logFC Ccdc85c: 0.7217
  logFC Ccl5: 1.104
  logFC Ccl17: 2.045
  logFC Ccl22: 0.7001
  logFC Ccl24: 1.365
  logFC Cd19: −1.847
  logFC Cd40: 0.6226
  logFC Cd74: 0.82
  logFC Cd79a: −1.818
  logFC Cd83: 1.204
  logFC Cecr2: −1.929
  logFC Chst3: −1.597
  logFC Cmpk2: 0.7001
  logFC Cplx2: −1.36
  logFC Cx3cl1: 0.9782
  logFC Cxc12: −1.129
  logFC Cxcl3: −0.91
  logFC Cyp4f17: 0.6547
  logFC Dact3: 0.6573
  logFC Dcstamp: 0.6406
  logFC Ddx60: 0.7796
  logFC Dhx58: 0.8261
  logFC Dntt: −2.827
  logFC Dock9: −0.589
  logFC Dsp: −0.701
  logFC Ebf1: −2.106
  logFC Ednrb: −0.653
  logFC Efnb2: 0.9402
  logFC Egr3: 0.785
  logFC Eno2: 0.6638
  logFC Epsti1: 0.6192
  logFC Fam129c: −0.677
  logFC Fam132b: −0.657
  logFC Fktn: −0.609
  logFC Gimap8: 0.7417
  logFC Gm13152: −0.827
  logFC Gpr27: 0.7663
  logFC Grap: 0.7694
  logFC Grasp: 0.5879
  logFC Grin2c: 0.9953
  logFC Grtp1: −0.628
  logFC Gstt1: 1.055
  logFC Gzmc: 2.215
  logFC H2-Aa: 0.9618
  logFC H2-Ab1: 0.9351
  logFC H2-DMb2: 0.7028
  logFC H2-Eb1: 1.049
  logFC Hgfac: 0.647
  logFC Hist1h2bj: 1.326
  logFC Hist1h3c: 0.7275
  logFC Hist1h3e: 1.345
  logFC Hist1h4d: 0.8341
  logFC Hivep2: 0.787
  logFC Hivep3: −0.682
  logFC Hmga1: 0.812
  logFC Hsh2d: 0.6798
  logFC Htr7: 0.9558
  logFC I113: 1.008
  logFC Ifi27l2a: 0.8565
  logFC Ifi44: 0.8977
  logFC Ifi204: 0.7452
  logFC Ifit1: 1.338
  logFC Ifit3: 1.739
  logFC Ifit3b: 1.88
  logFC Igll1: −2.359
  logFC Il1a: −1.749
  logFC Il1b: −1.155
  logFC Il6: 0.8099
  logFC Irf7: 1.151
  logFC Irg1: −0.846
  logFC Isg15: 1.268
  logFC Jakmip1: −0.62
  logFC Kcnj5: −0.586
  logFC Kif19a: −2.028
  logFC Klrd1: 0.6629
  logFC Kynu: 0.8281
  logFC Lad1: 1.447
  logFC Lax1: −1.106
  logFC Lef1: −1.83
  logFC Lgals3bp: 0.6079
  logFC Lrrc32: 0.6455
  logFC Lrrc51: 0.7656
  logFC Ltbp4: −0.7
  logFC Lynx1: 0.6016
  logFC Mir6236: 1.076
  logFC Mir6516: 0.6089
  logFC Mir8112: 0.8138
  logFC Mmp14: −0.771
  logFC Mnda: 0.9121
  logFC Mpl: −0.631
  logFC Ms4a4c: 1.575
  logFC Mx1: 0.6985
  logFC Mx2: 1.416
  logFC Mzb1: −1.509
  logFC Nov: 0.9714
  logFC Nr4a3: 0.7772
  logFC Oas1a: 0.8999
  logFC Oas1b: 0.8441
  logFC Oas1c: 0.6578
  logFC Oas1g: 1.142
  logFC Oas2: 0.966
  logFC Oas3: 0.864
  logFC Oasl1: 1.088
  logFC Oasl2: 1.178
  logFC Oit3: 0.5873
  logFC P4htm: 0.6018
  logFC Parp12: 0.7346
  logFC Pcbd1: −0.601
  logFC Pcsk9: −0.871
  logFC Pdgfb: 0.647
  logFC Perp: 0.6841
  logFC Pglyrp2: 0.8355
  logFC Phf11b: 1.046
  logFC Plcb1: 0.628
  logFC Plek2: 1.111
  logFC Pou2af1: −1.979
  logFC Ppbp: 0.6175
  logFC Procr: −0.659
  logFC Prok2: −0.608
  logFC Ptch2: −0.695
  logFC Ptpn 14: −1.123
  logFC Ptprn: 0.7392
  logFC Rab17: −0.755
  logFC Rag1: −3.551
  logFC Ramp3: 0.8948
  logFC Rbp1: −0.727
  logFC Rsad2: 1.141
  logFC Rsph1: −0.696
  logFC Rtp4: 1.478
  logFC Scn4b: −2.647
  logFC Sdc3: 0.6166
  logFC Siglech: −0.625
  logFC Sirpb1b: −0.633
  logFC Slc25a27: −0.715
  logFC Slc52a3: 0.8162
  logFC Slfn4: 0.7308
  logFC Slfn5: 1.407
  logFC Slfn8: 0.8032
  logFC Smim8: 0.6316
  logFC Smpdl3b: −0.714
  logFC Snhg9: −0.7
  logFC Spry1: 0.6924
  logFC Srp54b: 2.042
  logFC St6gal1: −0.723
  logFC Stbd1: 0.7931
  logFC Tmem51: 0.6591
  logFC Tnfrsf9: 0.982
  logFC Tnfrsf11b: 3.017
  logFC Tnni1: 3.17
  logFC Traf1: 0.6999
  logFC Tsku: −0.836
  logFC Tspan13: −0.592
  logFC Tssk6: 0.668
  logFC Ube2j2: 0.8674
  logFC Usp18: 1.346
  logFC Vpreb1: −2.268
  logFC Vpreb2: −2.096
  logFC Vpreb3: −2.553
  logFC Wdr86: 1.035
  logFC Xaf1: 1.054
  logFC Zbp1: 1.131
  logFC Zbtb37: −0.702
  logFC Zbtb46: 1.256
WT HSPCs
  differentially expressed genes (global transcriptomic analysis): few differentially expressed genes

Reference: patent US20250314644A1, “METHODS COMPRISING DETECTION OF ADP-HEPTOSE” (CHILDREN'S HOSPITAL MEDICAL CENTER, priority 2023, published 2025)
